Experimental data reported in patent publication US6730660B2, “Peritoneal dialysis solutions with polypeptides” (Baxter International Inc., priority 1992, dated 2004).

Test system: albino guinea pigs
Assay: Dermal sensitization study: intradermal induction with Freund's Complete Adjuvant, then intradermal challenge
Type: in vivo, guinea pig
Experimental: The study was conducted using 10 test animals and four naive control animals per test or positive control material. On Day 1, animals in each test group received duplicate 0.05-mL intradermal injections of a 1:1 ratio of Freund's Complete Adjuvant in sterile water, the respective test material, and a 1:1 ratio of the respective test material in Freund's Complete Adjuvant.
For the positive control group, the animals received duplicate 0.05-mL intradermal injections of a 1:1 ratio of Freund's Complete Adjuvant in sterile water, a 5% w/v suspension of sulfathiazole in sterile water, and a 5% w/v suspension of sulfathiazole in Freund's Complete Adjuvant.
On day 7, animals in all three test groups and the positive control group were pretreated with 10% w/w sodium lauryl sulfate in petrolatum applied topically at the shaved area of the Day 1 intradermal injections. On Day 8, the respective test or positive control material was injected intradermally at a volume of 0.05 mL into two separate areas located just posterior to the initial intradermal injections.
All the test materials were administered undiluted and the positive control was administered as a 5% w/v suspension of sulfathiazole in sterile water. All naive control animals were not treated during the induction phase.
Two weeks following the Day 8 intradermal injections, all animals in the respective test and naive control groups received a challenge intradermal injection. The respective undiluted test material was injected intradermally at a volume of 0.05-mL into one site on the shaved right flank of each respective animal. The positive control animals were treated with a 1% w/v suspension of sulfathiazole in sterile 0.9% saline. The sites were examined for erythema and edema at 24, 48, and 72 hours following injection.
Young adult albino guinea pigs, Hra:(DH)SPF, were procured, maintained individually in screen-bottom stainless steel cages in temperature- and humidity-controlled rooms, provided continuous access to Certified Guinea Pig Chow® 5026, Purina Mills, Inc., and water and held for an acclimation period of at least 7 days. If variations from the prescribed environmental conditions existed, they were documented and considered to have no effect on the study outcome. No contaminants were expected to have been present in the feed or water which would have interfered with or affected the results of the study.
Intradermal Injections (Day 1) A 4-cm×6-cm area was clipped along the midline over the shoulder region of each animal in the test and positive control groups. Six intradermal injections were made within the boundaries of a 2-cm×4-cm area, one row of three injections on each side of the midline as follows: […]

Nc1ccc(S(=O)(=O)Nc2nccs2)cc1 [Sulfathiazole]
dermal reactions at challenge (Day 22 intradermal challenge 0.05 mL, examined at 24, 48 and 72 hours): Dermal sensitization responses were observed
body weight loss of one animal (animal E17221, Group 11, third week of the study): 76 g
Classification (sensitizer) (guinea pig, after intradermal challenge): Sensitizer
# of Positive Reactions/# in Group (test or positive control groups, after intradermal challenge): 9/10
